Laboratory results taken from the supplement of paper PMC4862054.

Columns and labels:
Conditions in all cases: incubation time: 72 h
BT-474 [1] = test: normalised response (% of control), CellTox Green; higher = less cell death (100 = DMSO, 0 = benzethonium chloride kill control)
Method in brief: (§1)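 For each plate, 0.1 % DMSO was set to 100 and a positive kill control to 0. Breast cancer cell lines (20 µl suspension) were seeded into 384-well plates already holding compound at 5 concentrations in 10-fold steps over a 10,000-fold range chosen per compound, and incubated for 72 h. CellTox Green fluorescence at 485/520 nm was read before CellTiter-Glo luminescence, which followed 10 min at room temperature. Each value is the normalised signal at one concentration.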

BT-549 [2] = test: as above
Method in brief: as §1

CAL-120 [3] = test: as above
Method in brief: as §1

CAL-148 [4] = test: as above
Method in brief: as §1

CAL-51 [5] = test: as above
Method in brief: as §1

CAL-85-1 [6] = test: as above
Method in brief: as §1

DU-4475 [7] = test: as above
Method in brief: as §1

HCC1143 [8] = test: as above
Method in brief: as §1

HCC1599 [9] = test: as above
Method in brief: as §1

HCC1937 [10] = test: as above
Method in brief: as §1

HDQ-P1 [11] = test: as above
Method in brief: as §1

Hs578T [12] = test: as above
Method in brief: as §1

MCF-10A [13] = test: as above
Method in brief: as §1

MDA-MB-231 [14] = test: as above
Method in brief: as §1

MDA-MB-436 [15] = test: as above
Method in brief: as §1

MDA-MB-453 [16] = test: as above
Method in brief: as §1

MDA-MB-468 [17] = test: as above
Method in brief: as §1

MFM-223 [18] = test: as above
Method in brief: as §1

BT-474 [19] = test: normalised response (% of control), CellTiter-Glo; higher = more viable cells (100 = DMSO, 0 = benzethonium chloride kill control)
Protocol: (§2)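 DSRT, 72 h incubation, CellTox Green / CellTiter-Glo readout. Signal is normalised to DMSO and benzethonium chloride controls. Value is the normalised response at dose 3.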

BT-549 [20] = test: as above
Protocol: as §2

CAL-120 [21] = test: as above
Protocol: as §2

CAL-148 [22] = test: as above
Protocol: as §2

CAL-51 [23] = test: as above
Protocol: as §2

CAL-85-1 [24] = test: as above
Protocol: as §2

DU-4475 [25] = test: as above
Protocol: as §2

HCC1143 [26] = test: as above
Protocol: as §2

HCC1599 [27] = test: as above
Protocol: as §2

HCC1937 [28] = test: as above
Protocol: as §2

HDQ-P1 [29] = test: as above
Protocol: as §2

Hs578T [30] = test: as above
Protocol: as §2

MCF-10A [31] = test: as above
Protocol: as §2

MDA-MB-231 [32] = test: as above
Protocol: as §2

MDA-MB-436 [33] = test: as above
Protocol: as §2

MDA-MB-453 [34] = test: as above
Protocol: as §2

MDA-MB-468 [35] = test: as above
Protocol: as §2

MFM-223 [36] = test: as above
Protocol: as §2

SK-BR-3 = test: as above
Protocol: as §2

CCCCCCCCc1ccc(CCC(N)(CO)CO)cc1 [Fingolimod] (100 nM) showed a normalised response (BT-474 [1]) of 101%, a normalised response (BT-549 [2]) of 88.7% and a normalised response (CAL-120 [3]) of 104%. For the same compound, the normalised response (CAL-148 [4]) was 87.9%, the normalised response (CAL-51 [5]) was 109% and the normalised response (CAL-85-1 [6]) was 102%. It also gave a normalised response (DU-4475 [7]) of 100%, a normalised response (HCC1143 [8]) of 103% and a normalised response (HCC1599 [9]) of 111%. The normalised response (HCC1937 [10]) was 115%, the normalised response (HDQ-P1 [11]) was 91.7% and the normalised response (Hs578T [12]) was 110%. For the same compound, the normalised response (MCF-10A [13]) was 95.9%, the normalised response (MDA-MB-231 [14]) was 78.8% and the normalised response (MDA-MB-436 [15]) was 97.3%. For the same compound, the normalised response (MDA-MB-453 [16]) was 109%, the normalised response (MDA-MB-468 [17]) was 122% and the normalised response (MFM-223 [18]) was 103%. For the same compound, the normalised response (BT-474 [19]) was 99.9%, the normalised response (BT-549 [20]) was 95.8% and the normalised response (CAL-120 [21]) was 97%. It also gave a normalised response (CAL-148 [22]) of 101%, a normalised response (CAL-51 [23]) of 92.5% and a normalised response (CAL-85-1 [24]) of 105%. For the same compound, the normalised response (DU-4475 [25]) was 99.7%, the normalised response (HCC1143 [26]) was 100% and the normalised response (HCC1599 [27]) was 107%. It also gave a normalised response (HCC1937 [28]) of 96%, a normalised response (HDQ-P1 [29]) of 103% and a normalised response (Hs578T [30]) of 97.4%. For the same compound, the normalised response (MCF-10A [31]) was 105%, the normalised response (MDA-MB-231 [32]) was 100% and the normalised response (MDA-MB-436 [33]) was 100%. It also gave a normalised response (MDA-MB-453 [34]) of 97.4%, a normalised response (MDA-MB-468 [35]) of 107% and a normalised response (MFM-223 [36]) of 106%. The normalised response (SK-BR-3) was 107%.

Cc1ccc(NC(=O)c2ccc(CN3CCN(C)CC3)cc2)cc1Nc1nccc(-c2cccnc2)n1 [Imatinib] (100 nM) gave a normalised response (BT-474 [1]) of 99.8%, a normalised response (BT-549 [2]) of 104% and a normalised response (CAL-120 [3]) of 96.8%. For the same compound, the normalised response (CAL-51 [5]) was 106%, the normalised response (CAL-85-1 [6]) was 102% and the normalised response (DU-4475 [7]) was 102%. It also gave a normalised response (HCC1143 [8]) of 63.2%, a normalised response (HCC1599 [9]) of 108% and a normalised response (HCC1937 [10]) of 112%. For the same compound, the normalised response (HDQ-P1 [11]) was 111%, the normalised response (Hs578T [12]) was 62.7% and the normalised response (MCF-10A [13]) was 70.4%. The normalised response (MDA-MB-231 [14]) was 119%, the normalised response (MDA-MB-436 [15]) was 110% and the normalised response (MDA-MB-453 [16]) was 102%. For the same compound, the normalised response (MDA-MB-468 [17]) was 110%, the normalised response (MFM-223 [18]) was 101% and the normalised response (BT-474 [19]) was 99%. The normalised response (BT-549 [20]) was 109%, the normalised response (CAL-120 [21]) was 106% and the normalised response (CAL-148 [22]) was 111%. For the same compound, the normalised response (CAL-51 [23]) was 107%, the normalised response (CAL-85-1 [24]) was 97.9% and the normalised response (DU-4475 [25]) was 103%. For the same compound, the normalised response (HCC1143 [26]) was 104%, the normalised response (HCC1599 [27]) was 97% and the normalised response (HCC1937 [28]) was 98%. The normalised response (HDQ-P1 [29]) was 98.6%, the normalised response (Hs578T [30]) was 106% and the normalised response (MCF-10A [31]) was 104%. The normalised response (MDA-MB-231 [32]) was 96.8%, the normalised response (MDA-MB-436 [33]) was 103% and the normalised response (MDA-MB-453 [34]) was 111%. For the same compound, the normalised response (MDA-MB-468 [35]) was 106%, the normalised response (MFM-223 [36]) was 107% and the normalised response (SK-BR-3) was 105%.

In the case of COc1ccccc1S(=O)(=O)Nc1ccc2c(c1)CN(C)C(=O)N2 [PFI-1] (100 nM), the normalised response (BT-474 [1]) is reported as 105%, the normalised response (BT-549 [2]) is reported as 118% and the normalised response (CAL-120 [3]) is reported as 106%. The normalised response (CAL-51 [5]) was 102%, the normalised response (CAL-85-1 [6]) was 115% and the normalised response (DU-4475 [7]) was 110%. For the same compound, the normalised response (HCC1143 [8]) was 82.6%, the normalised response (HCC1599 [9]) was 111% and the normalised response (HCC1937 [10]) was 51.5%. It also gave a normalised response (HDQ-P1 [11]) of 78.4%, a normalised response (Hs578T [12]) of 96.8% and a normalised response (MCF-10A [13]) of 92.9%. It also gave a normalised response (MDA-MB-231 [14]) of 123%, a normalised response (MDA-MB-436 [15]) of 79.4% and a normalised response (MDA-MB-453 [16]) of 115%. It also gave a normalised response (MDA-MB-468 [17]) of 125%, a normalised response (MFM-223 [18]) of 106% and a normalised response (BT-474 [19]) of 97.4%. For the same compound, the normalised response (BT-549 [20]) was 99.4%, the normalised response (CAL-120 [21]) was 106% and the normalised response (CAL-148 [22]) was 105%. For the same compound, the normalised response (CAL-51 [23]) was 79%, the normalised response (CAL-85-1 [24]) was 96.6% and the normalised response (DU-4475 [25]) was 100%. For the same compound, the normalised response (HCC1143 [26]) was 100%, the normalised response (HCC1599 [27]) was 87.7% and the normalised response (HCC1937 [28]) was 91.4%. The normalised response (HDQ-P1 [29]) was 94.5%, the normalised response (Hs578T [30]) was 99.6% and the normalised response (MCF-10A [31]) was 111%. It also gave a normalised response (MDA-MB-231 [32]) of 99.5%, a normalised response (MDA-MB-436 [33]) of 104% and a normalised response (MDA-MB-453 [34]) of 105%. It also gave a normalised response (MDA-MB-468 [35]) of 96.8%, a normalised response (MFM-223 [36]) of 104% and a normalised response (SK-BR-3) of 105%.

For C/C(=C\c1csc(C)n1)[C@@H]1C[C@@H]2O[C@]2(C)CCC[C@H](C)[C@H](O)[C@@H](C)C(=O)C(C)(C)[C@@H](O)CC(=O)O1 [Patupilone] (10 nM), the normalised response (BT-474 [1]) was 95.7%, the normalised response (BT-549 [2]) was 97.3% and the normalised response (CAL-120 [3]) was 93.6%. The normalised response (CAL-148 [4]) was 102%, the normalised response (CAL-51 [5]) was 29.3% and the normalised response (CAL-85-1 [6]) was 79.5%. It also gave a normalised response (DU-4475 [7]) of 99.5%, a normalised response (HCC1143 [8]) of 108% and a normalised response (HCC1599 [9]) of 106%. For the same compound, the normalised response (HCC1937 [10]) was 99.4%, the normalised response (HDQ-P1 [11]) was 110% and the normalised response (Hs578T [12]) was 84%. It also gave a normalised response (MCF-10A [13]) of 103%, a normalised response (MDA-MB-231 [14]) of 92.9% and a normalised response (MDA-MB-436 [15]) of 76.8%. The normalised response (MDA-MB-453 [16]) was 97.9%, the normalised response (MDA-MB-468 [17]) was 34.5% and the normalised response (MFM-223 [18]) was 96.3%. The normalised response (BT-474 [19]) was 94.6%, the normalised response (BT-549 [20]) was 55.1% and the normalised response (CAL-120 [21]) was 105%. For the same compound, the normalised response (CAL-148 [22]) was 105%, the normalised response (CAL-51 [23]) was 56% and the normalised response (CAL-85-1 [24]) was 80.2%. The normalised response (DU-4475 [25]) was 104%, the normalised response (HCC1143 [26]) was 77.5% and the normalised response (HCC1599 [27]) was 114%. It also gave a normalised response (HCC1937 [28]) of 100%, a normalised response (HDQ-P1 [29]) of 98.7% and a normalised response (Hs578T [30]) of 90.9%. For the same compound, the normalised response (MCF-10A [31]) was 89.1%, the normalised response (MDA-MB-231 [32]) was 97.9% and the normalised response (MDA-MB-436 [33]) was 79.9%. It also gave a normalised response (MDA-MB-453 [34]) of 101%, a normalised response (MDA-MB-468 [35]) of 53.4% and a normalised response (MFM-223 [36]) of 107%. For the same compound, the normalised response (SK-BR-3) was 99.7%.
